Measurements as given in patent US10208007B2, “Use of strigolactones and strigolactone analogs for treating proliferative conditions” (The State of Israel, Ministry of Agriculture & Rural …, priority 2011, dated 2019).
Values joined by “and” are separate entries in the source; they are usually repeats but may differ in a detail not shown here. Identical values can stand only once.

Legend:
MCF-7 mammospheres [1] = test: cells; format: cell-based, human; conditions: for Mammosphere numbers (>100 μM), percentage of vehicle treated control: 5 days; for viability at 5 ppm: Homo sapiens, MCF7, read-out: XTT viability of dissociated mammospheres; for Mammosphere morphology: 2.5-5 ppm, after 48 hours
Protocol: (§1) Given the similar effects the other strigolactone analogs had on breast cancer cell line growth compared to GR-24, we anticipated that the strigolactone analogs would also have similar effects on MCF-7 primary mammosphere formation (FIG. 10): MCF-7 cells were seeded in MEBM media into low attachment, 96 well plates in duplicate at 3000 cells per well. The same day the indicated doses of strigolactone analogs were added. After 7 days representative images were taken. […] Like GR-24, the doses required to inhibit mammosphere formation are lower than that required to inhibit proliferation in monolayer cultures (5 fold lower; ST-362 and MEB-55, 3 fold lower; ST-357). To determine if the sensitivity to strigolactone analogs treatments was specific to mammosphere formation or whether it extended to the integrity and survival of mature mammospheres, MCF-7 mammospheres were grown in the absence of strigolactone analogs and after 7 days (or once mammospheres had reached a mean diameter of over […]), strigolactone analogs were added to the growth media (FIG. 10) at the indicated doses. MCF-7 cells were seeded in MEBM media into low attachment, 96 well plates in duplicate at 3000 cells per well and primary mammospheres left to grow for 7 days. At which time the indicated doses of strigolactone analogs were added to the media. FIG. 11A is a representative image of mammospheres treated with 5 ppm concentrations, showing dissociation after 2 days of exposure to strigolactone analogs. […] Following […] treatment, mammospheres were monitored visually after 24 and 48 hours. No changes were observed following 24 hours of strigolactone analogs treatment. […] At 5 ppm concentrations EG-5, EG-9C, ST-357, ST-362 and MEB-55 reduce mammosphere numbers from 86.7+6.8 (vehicle control) to 23+5, 38+6.2, 6+2, 8.3+3.5 and 9.3+1.5%, respectively. At 2.5 ppm concentrations, mammosphere numbers were reduced to 35+6.9 (EG-5), 52+12.3 (EG-9C), 22+8.5 (ST-357), 6+1.7 (ST-362) and 20.7+8.6 (MEB-55). […] XTT viability assays were also carried out on dissociated mammospheres. At concentrations of 5 ppm, EG-5, ST-362 and MEB-55 reduced viability to 3.7+0.5, 25.5+8.8 and 4.6+1.1% respectively.

MCF10A = conditions: 3 days
Protocol: Results are presented as Average±SD of replicate analyses and are either representative of, or inclusive of at least two independent experiments. Statistical analyses were performed using student's t-test (2-tailed, paired) versus vehicle controls and are regarded as being significant when P<0.05(*). Higher powers (p<0.01, p<0.001) are also employed and indicated in each figure legend. IC50 doses for strigolactone analogs were calculated by interpolation of the sigmoidal dose response curves (Graphpad Prism 4.0 software). Briefly, linear regression was performed between relevant y-axis data points and interpolation calculated for x-axis unknowns.
Cells were seeded into a 96 well plates at 1500 cells per well (MCF-10, PC3, DU145, MDA-MB-231, MDA-MB-436, HT-29, SW480), 1000 cells per well (K562) or 4000 cells per well (MCF-7, HCT116) in triplicate in normal growing media (with the exception of K562, a non-adherent leukemic cell line which was seeded in phenol-free DMEM supplemented with 10% charcoal-stripped FBS). The following day media was replaced with phenol-free DMEM supplemented with 10% charcoal stripped FBS and the indicated final concentrations of strigolactone analog or vehicle (acetone) alone. Cells were incubated for 3 days, at which time XTT (2,3,-bis(2-methoxy-4-nitro-5-sulfophenyl)-5-[(phenylamino)-carbonyl]-2H-tetrazolium inner salt) reduction was used to quantify viability according to manufacturer's instruction (ATCC). Cells were incubated with XTT reagent for 2-3 hours at 37° C. in a humidified 5% CO2-95% air atmosphere. Absorbance was recorded by a photometer [sequence]luor Plus, Tecan (Salzburg, Austria) at 450 nm with 750 nm of reference wavelength. Cell survival was estimated from the equation: % cell survival=100×(At−Ac), where At and Ac are the absorbencies (450 nm) of the XTT colorimetric reaction (ATCC) in treated and control cultures respectively minus non-specific absorption measured at 750 nm. Absorbance of medium alone was also deducted from specific readings.
MCF-10A cells were included as an example of a non-tumorigenic line. XTT viability assays were carried out in the presence of the indicated doses of strigolactone analogs following 3 days of treatment. Resulting differences in absorbance readings following strigolactone analogs treatment reflect changes in proliferation and cell survival (FIG. 7A-C): Cells were seeded into 96 well plates in normal growing media. The following day media was replaced with phenol-free DMEM supplemented with 10% charcoal-stripped serum and the indicated doses of strigolactone analog or vehicle (cont.) alone. Viability was assayed after 3 days (XTT, ATCC).

MCF-7 mammospheres [2] = test: Mammosphere formation; format: cell-based, human; conditions: for Dose to block/inhibit mammosphere formation, fold lower than for monolayer growth: MCF-7
Protocol: Adherent cells were gently trypsinized, (0.05% trypsin/EDTA) washed twice in PBS and filtered through a […] cell sieve to obtain a single cell suspensions. Cells were diluted to a concentration of 10,000 cell/ml in serum-free phenol-red free MEBM (MEGM Bulletkit, Lonza) supplemented with 5 μg/ml bovine insulin, 20 ng/ml recombinant epidermal growth factor, 20 ng/ml basic fibroblast growth factor (Gibco), 1×B27 supplement, 0.5 μg/ml hydrocortisone (MEGM Bulletkit, Lonza). For MDA-MB-231 mammosphere cultures serum-free phenol red-free CnT-27 medium with growth additives (CellnTEC Advanced cell systems, Bern, Switzerland) was used as previously described. 0.1 ml was seeded per well of a Ultralow attachment 96 well plates. The following day the indicated doses of GR-24 (ppm) or vehicle alone (0.6% acetone f/c) were added. Media was replenished every 3-4 days. Self-renewal capacity of the mammospheres was determined by re-plating and producing further generations of mammospheres. Secondary mammospheres were cultivated by dissociation (trypsinization with gently vortexing) of 10-14 day old primary mammospheres. Single cell suspensions were obtained as described above.
as §1

MDA-MB-231 [3] = test: Cell cycle analysis (propidium iodide, flow cytometry); format: cell-based, human; conditions: 48 hours
Protocol: (§2) Adherent cells were trypsinyzed, washed twice with PBS and filtered through a […] cell sieve. DNA content was assessed by flow cytometry. Cells were seeded at densities of 1.5×10^5 cells (MDA-MB-231, MDA-MB-436), or 4×10^5 cells (MCF-7 and MCF10A), or 2×10^5 cells (SW480, HT-29), or 5×10^5 cells (HCT116), per well in DMEM with 10% FBS in 6-well plate culture dishes. […] After 48 hours, cells were washed twice with PBS (pH 7.4), centrifuged at 360 g for 10 minutes at 4° C., and fixed in chilled ethanol (70%; v/v in PBS) with gentle vortex mixing. To determine their DNA contents, the cells were stained with 40 μg/ml propidium iodide (hereinafter PI) and analyzed using a FACSCalibur flow cytometer and CellQuest analysis software (Becton Dickinson, San Jose, Calif.). Where phosphoHistone-H3 staining was carried out, cells were incubated with polyclonal antibody against phosphoHistone H3 and then with secondary Goat anti-rabbit IgG-conjugated to FITC prior to PI staining.

BJ fibroblast = test: as above; format: cell-based, human; conditions: 48 hours
Protocol: as §2

PC3 = test: XTT viability assay; format: cell-based, human; conditions: PC3, 3 days
Protocol: (§3) Viability was assayed after 3 days (XTT, ATCC). IC50 concentrations are indicated (Table 3 above).

DU145 = test: XTT viability assay; format: cell-based, human; conditions: DU145, 3 days
Protocol: as §3

LNCaP = test: XTT viability assay; format: cell-based, human; conditions: 3 days
Protocol: as §3

MDA-MB-231 [4] = test: XTT viability assay; format: cell-based, human; conditions: for IC50 at 72 h: MDA-MB-231, 3 days
Protocol: as §3

U20S = test: XTT viability assay; format: cell-based, human; conditions: 3 days
Protocol: as §3

HT-29 = test: XTT viability assay; format: cell-based, human; conditions: HT-29, 3 days
Protocol: as §3

MCF-7 = test: XTT viability assay; format: cell-based, human; conditions: MCF-7, 3 days
Protocol: as §3

K562 = test: XTT viability assay; format: cell-based, human; conditions: K562, 3 days
Protocol: as §3

HCT116 = test: XTT viability assay; format: cell-based, human; conditions: HCT116, 3 days
Protocol: as §3

SW480 = test: XTT viability assay; format: cell-based, human; conditions: SW480, 3 days
Protocol: as §3

T47D = test: XTT viability assay; format: cell-based, human; conditions: 3 days
Protocol: as §3

[5] = 5 ppm, vehicle control 86.7+6.8

| SMILES | Mammosphere numbers (>100 μM), percentage of vehicle treated control (MCF-7 mammospheres [1]; 2.5 ppm) | Mammosphere numbers (>100 μM), percentage of vehicle treated control (MCF-7 mammospheres [1]; [5]) | viability at 5 ppm (MCF-7 mammospheres [1]) [%] | IC50 at 72 h (MCF10A) [ppm] | Mammosphere formation (MCF-7 mammospheres [2]; 5 ppm and above) | IC50 at 72 h (PC3) | IC50 at 72 h (DU145) [ppm] | IC50 at 72 h (LNCaP) [ppm] | IC50 at 72 h (MDA-MB-231 [4]) [ppm] | IC50 at 72 h (U20S) [ppm] | IC50 at 72 h (HT-29) [ppm] | IC50 at 72 h (MCF-7) [ppm] | IC50 at 72 h (K562) [ppm] | IC50 at 72 h (HCT116) [ppm] | IC50 at 72 h (SW480) [ppm] | IC50 at 72 h (T47D) [ppm] | Mammosphere morphology (MCF-7 mammospheres [1]) | Mammosphere formation (MCF-7 mammospheres [2]; 1 ppm, p<0.01) | Mammosphere growth (MCF-7 mammospheres [2]; 2.5 ppm) | Dose to block/inhibit mammosphere formation, fold lower than for monolayer growth (MCF-7 mammospheres [2]) [fold] | also measured |
| --- | --- | --- | --- | --- | --- | --- | --- | --- | --- | --- | --- | --- | --- | --- | --- | --- | --- | --- | --- | --- | --- |
| CC1=CC(O/C=C2\Cc3c(n(C)c4ccccc34)C2=O)OC1=O (racemic) [EG-5, (±) (2E)-4-methyl-2-(4-methyl-5-oxo-2,5-dihydrofuran-2-yloxymethylene)-1,4-dihydro-2H-cyclopenta[b]indol-3-one] | 35+6.9% | 23+5% | 3.7 | >15 | completely block mammosphere formation | >15 ppm | >15 | 13 | 7.5 | 3.9 | >15 | 17.5 | >15 | >15 | >15 | 8.8 |  |  |  |  | Cell Cycle Distribution G1 (MDA-MB-231 [3]; MDA-MB-231, 10 ppm): 34.74%; Cell Cycle Distribution G2 (MDA-MB-231 [3]; MDA-MB-231, 10 ppm): 35.70%; Cell Cycle Distribution S (MDA-MB-231 [3]; MDA-MB-231, 10 ppm): 14.59%; SubG1/Apoptosis (MDA-MB-231 [3]; MDA-MB-231, 10 ppm): 11.32; Cell Cycle Distribution G1 (BJ fibroblast; 10 ppm): 82.29%; Cell Cycle Distribution G2 (BJ fibroblast; 10 ppm): 10.50%; Cell Cycle Distribution S (BJ fibroblast; 10 ppm): 4.480%; SubG1/Apoptosis (BJ fibroblast; 10 ppm): 0.49 |
| CC1=CC(O/C=C2\Cc3c(n(C)c4cc(-c5cccs5)ccc34)C2=O)OC1=O (racemic) [MEB-55, (±) 2E-4-methyl-2-(4-methyl-5-oxo-2,5-dihydrofuran-2-yloxymethylene)-6-thiophen-2-yl-1,4-dihydro-2H-cyclopenta[b]indol-3-one] | 20.7 ± 8.6% | 9.3+1.5% | 4.6 | >15 | completely block mammosphere formation | 8.8 ppm | 12.8 | 12 | 3.9 | 2.7 | 8.2 | >12.8 | 8.1 | 12.8 | 9.7 | 5.0 | exhibited a looser morphology and appeared to be dissociating | significantly inhibit mammosphere formation | block mammosphere growth | 5 | Cell Cycle Distribution G1 (MDA-MB-231 [3]; MDA-MB-231, 5 ppm): 49.61%; Cell Cycle Distribution G2 (MDA-MB-231 [3]; MDA-MB-231, 5 ppm): 28.33%; Cell Cycle Distribution S (MDA-MB-231 [3]; MDA-MB-231, 5 ppm): 14.51%; SubG1/Apoptosis (MDA-MB-231 [3]; MDA-MB-231, 5 ppm): 3.88; Cell Cycle Distribution G1 (BJ fibroblast; 5 ppm): 78.96%; Cell Cycle Distribution G2 (BJ fibroblast; 5 ppm): 11.54%; Cell Cycle Distribution S (BJ fibroblast; 5 ppm): 5.930%; SubG1/Apoptosis (BJ fibroblast; 5 ppm): 0.57 |
| CC1=C[C@H](O/C=C2/C(=O)O[C@@H]3c4ccccc4C[C@H]23)OC1=O (relative stereo) [GR-24, (3aR*,8bS*,E)-3-(((R*)-4-methyl-5-oxo-2,5-dihydrofuran-2-yloxy)methylene)-3,3a,4,8b-tetrahydro-2H-indeno[1,2-b]furan-2-one] |  |  |  |  |  |  |  |  |  |  |  |  |  |  |  |  |  | severely attenuated |  | 5.7 | Mammosphere growth (MCF-7 mammospheres [2]; 0.5 ppm, p<0.05): inhibited to a lesser degree; Increase in the sub-G1/apoptotic fraction compared to vehicle (MDA-MB-231 [3]; 10 ppm): 4.6 fold |
| CC1=CC(O/C=C2/C(=O)c3c(c4cc(-c5cccs5)ccc4n3C)C2C)OC1=O (stereo not shown) [ST-357, (2E)-1,4-dimethyl-2-((4-methyl-5-oxo-2,5-dihydrofuran-2-yloxy)methylene)-7-(thiophen-2-yl)-1,2-dihydrocyclopenta[b]indol-3(4H)-one] | 22+8.5% | 6+2% |  | >15 | completely block mammosphere formation | 5.3 ppm and 5.4 ppm | >15 | 14.4 | 5.0 | 4.5 | >15 | >20 | >15 | >15 | >15 | >10 | exhibited a looser morphology and appeared to be dissociating | significantly inhibit mammosphere formation | significant reduction in mammosphere growth | 3 |  |
| CC1=CC(O/C=C2/C(=O)c3c(c4cc(-c5scc6c5OCCO6)ccc4n3C)C2C)OC1=O (stereo not shown) [ST-362, (2E)-2-[(2,5-dihydro-4-methyl-5-oxofuran-2-yloxy)methylene]-1,2-dihydro-7-(2,3-dihydrothieno[3,4-b][1,4]dioxin-7-yl)-1,4-dimethyl-cyclopenta[b]indole-3-(4H)-one] | 6+1.7% | 8.3+3.5% |  | >15 | completely block mammosphere formation | >15 ppm | 7.5 | 9.8 | 2.9 | 2.8 | 7.3 | 8.1 | 4.3 | 6.0 | 2.9 | 8.6 | exhibited a looser morphology and appeared to be dissociating | significantly inhibit mammosphere formation | block mammosphere growth | 5 | Cell Cycle Distribution G1 (MDA-MB-231 [3]; MDA-MB-231, 5 ppm): 42.17%; Cell Cycle Distribution G2 (MDA-MB-231 [3]; MDA-MB-231, 5 ppm): 37.93%; Cell Cycle Distribution S (MDA-MB-231 [3]; MDA-MB-231, 5 ppm): 11.90%; SubG1/Apoptosis (MDA-MB-231 [3]; MDA-MB-231, 5 ppm): 4.17; Cell Cycle Distribution G1 (BJ fibroblast; 5 ppm): 83.42%; Cell Cycle Distribution G2 (BJ fibroblast; 5 ppm): 12.86%; Cell Cycle Distribution S (BJ fibroblast; 5 ppm): 1.580%; SubG1/Apoptosis (BJ fibroblast; 5 ppm): 0.72; IC20 concentration (MDA-MB-231 [4]; MDA-231, XTT): 1.5 ppm |
